Converted amounts (≈) assume the structure as drawn. Where two headings read alike, the source gives them in different places.
Test: Solubility of co-crystal and reactants in organic solvents at 25° C.
Type: physicochemical
Conditions: mean +/− deviation; for solubility: organic solvent or mixture, thermodynamic from solid
Experimental: The predicted reduction in solubility of the co-crystal is borne out experimentally as illustrated, for example in FIG. 4, which uses the carbamazepine nicotinamide 1:1 co-crystal (CBZ:NCT) for illustration. The CBZ:NCT co-crystal is known; solubilities for the co-crystal and the reactants CBZ and NCT in three solvents (ethanol, […]) are given in the table.
Solubilities are given at 25° C. and are expressed as the mean +/− the deviation for a sample size of 3. It is noted that only in ethyl acetate is the co-crystal the least soluble component. Accordingly, the co-crystal can be precipitated from equimolar solutions of CBZ and NCT in ethyl acetate to produce the co-crystal by cooling or evaporation methods.

[1] = 2-propanol, sample size 3, read-out: Solubility in 2-Propanol
[2] = ethanol, sample size 3, read-out: Solubility in Ethanol
[3] = ethyl acetate, sample size 3, read-out: Solubility in Ethyl acetate

Row | SMILES | solubility [1] [mM] | solubility [2] [mM] | solubility [3] [mM] | Solubility in 2-Propanol (2-propanol, sample size 3) [mM] | Solubility in Ethanol (ethanol, sample size 3) [mM] | Solubility in Ethyl acetate (ethyl acetate, sample size 3) [mM]
1 | NC(=O)N1c2ccccc2C=Cc2ccccc21 [CBZ(III), carbamazepine] | 39 ± 3 (≈ 9.21 mg/mL) | 108 ± 0.1 (≈ 25.5 mg/mL) | 44 ± 0.1 (≈ 10.4 mg/mL) |  |  | 
2 | NC(=O)N1c2ccccc2C=Cc2ccccc21.NC(=O)c1cccnc1 [CBZ:NCT, Carbamazepine:Nicotinamide co-crystal] |  |  |  | 44 ± 3 | 116 ± 3 | 24 ± 1
3 | NC(=O)c1cccnc1 [NCT(I), Nicotinamide] | 496 ± 4 (≈ 60.6 mg/mL) | 841 ± 8 (≈ 103 mg/mL) | 98 ± 2 (≈ 12 mg/mL) |  |  | 

Reference: US20070099237A1, “Reaction co-crystallization of molecular complexes or co-crystals” (The Regents of The University of Michigan, priority 2005, published 2007)
